Reference: patent US20070185013A1, “Use of chk1 inhibitors to control cell proliferation” (ICOS CORPORATION, priority 2003, published 2007)

Assays:
tumor cells = test: Cell-based proliferation (sensitization) assay (Example 2); details: ratio of GI90 of the chemotherapy agent in absence to that in presence of Chk1 inhibitor
Method: Chk1 inhibitors were tested in a cell-based proliferation assay for the ability to sensitize tumor cells to ionizing radiation or chemotherapy agents. Chk1 inhibitors were tested in combination with 5-FU, gemicitabine, ionizing radiation, camptothecin, etoposide, hydroxyurea, cisplatin, fludarabine, Ara-C and aphidicolin. For each experiment, a serial dilution of each compound in combination with a ten-point dilution of each chemotherapy agent was included, in order to determine the concentration of chemotherapeutic required to inhibit the growth of 90% (GI90) of the cells in the presence and absence of the Chk1 inhibitor. This ratio of GI90 in the absence of Chk1 inhibitor to that in the presence of Chk1 inhibitor is called the “fold sensitization.” Fold sensitization was plotted as a function of Chk1 inhibitor concentration and the amount of drug required to yield two-fold sensitization was calculated. […] Another parameter analyzed was the fold sensitization achieved at the LD50 (the dose of compound alone that inhibits growth of 50% of cells) for the compound. These two values allow direct ranking of both the potency and toxicity of Chk1 inhibitors with respect to one another.

Chk1 = Chk1 serine 296 phosphorylation, Western blot in HT29 cells; assay type: cell-based, human; details: tumor cells treated with gemcitabine; Chk1 inhibitors for 15 minutes
Method: Phosphorylation at this site is not inhibited by Wortinannin, which inhibits Atm and Atr. Therefore the phosphorylation of serine 296 is distinct from phosphorylation at serines 317 and 345 described in Example 12. […] Therefore, this approach may be used to monitor Chk1 activity in tumors in response to Chk1 activators. Further, this approach may be used to measure inhibition of Chk1 activation by Chk1 inhibitors.
Thus, HT 29 cells were treated with 20 μM gemcitabine for two hours. The gemcitabine was washed out of the cell growth media and cells were incubated for 22 additional hours. Protein lysates were prepared and separated by an SDS-polyacrylamide gel electrophoresis. Proteins were transferred to polyvinylidene fluoride (PVDF) membranes and probed with antisera (Cell Signalling) specific for phosphorlyated serine 296 (Cell Signalling). […] Further, HT29 cells treated with selective Chk1 inhibitors for 15 minutes show no serine 296 phosphorylation.

HT29 cells = test: Cell cycle phase distribution by propidium iodide DNA content; assay type: cell-based, human; details: low-level camptothecin, 20 nM for 24 hours
Source text: The proportion of cells in different phases of the cell cycle can be measured by those skilled in the art using any one of a variety of techniques. For example, a fluorescent DNA-binding dye, propidium iodide, can be used to distinguish cells in different cell cycle phases. Since cells in G2 have twice as much DNA as cells in G1, and S phase cells show an intermediate amount of DNA, the technique allows one to identify cells in different phases based on the DNA content of a cell. This method can be carried out on cell lines and tumor specimens (Cerra et al., Methods in Cell Biology, 33:1-12, 1990) Furthermore, cells in S phase can be labeled with the nucleotide analog, bromo-deoxyuridine (BrdU) and then fixed and stained with an fluorescent-tagged antibody to BrdU. Both of these methods employ fluorescence cytometry or fluorescence activity cell sorting (FACS) to quantify the proportion of cells staining with these fluorescent markers. […]
Two cell samples, each containing the same human carcinoma cell line (HT29) were prepared. Using propidium iodide (PI) to monitor DNA content, the percentage of cells the G1, S, and G2/M phases of the cell cycle were measured before and after contact with low levels of camptothecin. […]

SMILES	Fold Sensitization to Agent by Chk1 Inhibitor (tumor cells)	further results
O=c1[nH]cc(F)c(=O)[nH]1 [5-FU, 5-fluorouracil]	12 fold	–
Nc1ccn([C@@H]2O[C@H](CO)[C@@H](O)[C@@H]2O)c(=O)n1 [Ara-C, cytosine arabinoside]	9 fold	–
N.N.[Cl][Pt][Cl] [Cisplatin, cisplatin]	3 fold	–
COc1cc([C@@H]2c3cc4c(cc3[C@@H](O[C@@H]3O[C@@H]5CO[C@@H](C)O[C@H]5[C@H](O)[C@H]3O)[C@H]3COC(=O)[C@H]23)OCO4)cc(OC)c1O [Etoposide, etoposide]	3 fold	–
COC[C@H]1OC(=O)c2coc3c2[C@@]1(C)C1=C(C3=O)[C@@H]2CCC(=O)[C@@]2(C)C[C@H]1OC(C)=O [Wortinannin]	–	inhibition of Chk1 serine 296 phosphorylation (Chk1): not inhibited
CC[C@@]1(O)C(=O)OCc2c1cc1n(c2=O)Cc2cc3ccccc3nc2-1 [camptothecin]	5 fold	G1 (%) (HT29 cells; PI staining): 6.75%; G2/M* (%) (HT29 cells; combined total in G2 + M phase): 7%
